According to US11026910B2, “α- and γ-truxillic acid derivatives and pharmaceutical compositions thereof” (The Research Foundation for The State University of New York, priority 2012, dated 2021):
“Also recorded” adds a separate entry of the source.

Legend:
Format in all cases: cell-based
PPARγ = molecular target: T1, PPARγ (Homo sapiens, UniProt P37231); assay: PPARγ transactivation in HeLa cells
T1 construct: expressed in transfected cells; host or cells: HeLa
T1 sequence (P37231 1-505): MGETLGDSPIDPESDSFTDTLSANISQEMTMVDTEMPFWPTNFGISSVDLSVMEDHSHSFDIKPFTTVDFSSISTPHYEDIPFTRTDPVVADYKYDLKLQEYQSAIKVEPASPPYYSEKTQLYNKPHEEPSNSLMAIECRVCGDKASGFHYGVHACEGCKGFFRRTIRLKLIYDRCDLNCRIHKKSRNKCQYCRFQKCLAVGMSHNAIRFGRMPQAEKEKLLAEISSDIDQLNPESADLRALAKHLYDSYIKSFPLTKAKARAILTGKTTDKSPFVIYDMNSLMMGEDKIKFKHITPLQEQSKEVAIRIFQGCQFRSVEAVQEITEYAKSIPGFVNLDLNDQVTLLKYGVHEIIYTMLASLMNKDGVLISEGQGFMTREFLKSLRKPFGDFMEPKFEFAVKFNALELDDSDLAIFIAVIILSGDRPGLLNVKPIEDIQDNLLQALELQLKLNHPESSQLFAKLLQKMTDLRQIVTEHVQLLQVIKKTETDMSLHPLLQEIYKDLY
Experimental: (§1) PPARα and PPARγ transactivation assays were performed in HeLa cells exactly as described (Kaczocha, M. et al. 2012).

wild-type HeLa cells = assay: AEA uptake in wild-type HeLa cells
Experimental: AEA uptake assays in wild-type and FABP5 knockdown HeLa cells were performed exactly as described (Kaczocha, M. et al. 2012).

PPARα = molecular target: T2, PPARα (Homo sapiens, UniProt Q07869); assay: PPARα transactivation in HeLa cells
T2 construct: expressed in transfected cells; host or cells: HeLa
T2 sequence (Q07869 1-468): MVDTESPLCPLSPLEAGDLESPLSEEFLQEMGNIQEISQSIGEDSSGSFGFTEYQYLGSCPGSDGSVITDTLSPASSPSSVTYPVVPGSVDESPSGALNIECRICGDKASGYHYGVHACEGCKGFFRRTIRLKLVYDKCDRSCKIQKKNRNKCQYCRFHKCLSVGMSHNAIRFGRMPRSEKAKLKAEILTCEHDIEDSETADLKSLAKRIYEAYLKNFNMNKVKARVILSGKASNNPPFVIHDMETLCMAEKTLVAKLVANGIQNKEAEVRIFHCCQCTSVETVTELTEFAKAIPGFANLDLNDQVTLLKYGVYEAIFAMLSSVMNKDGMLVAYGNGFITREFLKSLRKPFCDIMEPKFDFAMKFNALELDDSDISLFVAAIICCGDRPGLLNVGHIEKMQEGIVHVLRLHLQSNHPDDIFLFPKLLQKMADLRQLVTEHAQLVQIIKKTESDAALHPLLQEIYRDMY
Experimental: as §1

[1] = 6 hrs incubation, luciferase reporter

activation of PPARγ (PPARγ; [1]): ~3 fold | agonism at PPARγ (PPARγ; compared with rosiglitazone): weak agonist | activation of PPARα (PPARα; [1]): ~2 fold | agonism at PPARα (PPARα; compared with GW7647): weak agonist
SMILES: O=C(O)[C@H]1[C@@H](c2ccccc2)[C@@H](C(=O)Oc2cccc3ccccc23)[C@@H]1c1ccccc1 (single isomer, unassigned) [Compound 26, α-2,4-diphenyl-cyclobutane-1,3-dicarboxylic Acid mono-(1-naphthol) Ester]
cellular AEA uptake / accumulation (wild-type HeLa cells): significantly inhibited; also recorded: inhibits
